# Read-outs that look alike come from different tables or passages of the source.
# Columns and labels:
# [1] = tested on: Colo320; assay: Cytotoxicity, Colo320; type: cell-based, human; conditions: this work
# Excerpt: (§1) Supplementary Information
# (§2) (11 pictures or pasted objects on this page, not shown here)
# [2] = tested on: MES-SA/Dx5; assay: Cytotoxicity in double coculture, MES-SA/Dx5 eGFP; conditions: for IC50: read-out: IC50 MES-SA/Dx5; for SR = IC50 (MES-SA)/IC50 (MES-SA/Dx5): double coculture
# Description: (§7) Therefore, the novel half-sandwich complexes (1–4) and their corresponding ligands were tested against a coculture of MES-SA and MES-SA/Dx5 cells expressing the fluorescent proteins mCherry or eGFP, respectively.[62]
# (§8) The tested compounds were dissolved in 50% (v/v) DMSO/PBS’ buffer to prepare 5–10 mM stock solutions, which were diluted in complete culture medium. Constitutive expression of the fluorescent proteins allowed multiplexing in cytotoxicity experiments.[62] […] Serial dilutions of the compounds were added 24 h after seeding. To address the effect of P-gp function, TQ was added at a nontoxic concentration (0.4 μM) 15 min before the test compounds. […] IC50 values and standard deviation were calculated from average pIC50 values from at least 3 independent measurements.
# [3] = tested on: MES-SA; assay: Cytotoxicity in triple coculture, MES-SA mCherry; type: cell-based, human; conditions: Homo sapiens, MES-SA/B1, MES-SA/Dx5, 144 h
# Description: (§3) Cell lines were purchased from the American Type Culture Collection (ATCC). MES-SA/B1 is a human MDR1-transfected derivative of MES-SA, and MES-SA mCherry, MES-SA/B1 mOrange, and MES-SA/Dx5 eGFP were engineered to stably express the respective fluorescent proteins previously.[62] Cells were kept in culture medium (DMEM) supplemented with 10% fetal bovine serum, 2 mM L-glutamine, 100 units/mL penicillin, and 100 μg/mL streptomycin (Thermo Fisher). One week before use, MES-SA/Dx5 eGFP cells were treated with 0.5 μM doxorubicin to ensure ABCB1/P-gp expression.
# (§4) The tested compounds were dissolved in 50% (v/v) DMSO/PBS’ buffer to prepare 5–10 mM stock solutions, which were diluted in complete culture medium. Constitutive expression of the fluorescent proteins allowed multiplexing in cytotoxicity experiments.[62] Cells were mixed before seeding in 384-well plates: in double cocultures, MES-SA mCherry and MES-SA/Dx5 eGFP cells were seeded at 1250–1250 cells/well (in total 2500 cells/well); while in triple cocultures, MES-SA mCherry, MES-SA/Dx5 eGFP and MES-SA/B1 mOrange cells were seeded at 800–800–800 cells/well (in total 2400 cells/well). Serial dilutions of the compounds were added 24 h after seeding. To address the effect of P-gp function, TQ was added at a nontoxic concentration (0.4 μM) 15 min before the test compounds. The intensity of the fluorescent proteins, which is proportional to cell mass, was measured after 144 h of incubation at the respective fluorescent channels (excitation/emission: eGFP: 485 nm/510 nm; mOrange: 545 nm/567 nm; mCherry: 585 nm/610 nm). pIC50 values were calculated by a custom program written by Judit Sessler in C#.[62] IC50 values and standard deviation were calculated from average pIC50 values from at least 3 independent measurements.
# [4] = tested on: MES-SA/Dx5; assay: Cytotoxicity in triple coculture, MES-SA/Dx5 eGFP; type: cell-based, human
# Description: as §3, §4
# [5] = tested on: MES-SA; assay: Cytotoxicity in double coculture, MES-SA mCherry; conditions: 144 h, read-out: IC50 MES-SA
# Description: as §7, §8
# [6] = tested on: Colo205; assay: Cytotoxicity, Colo205; type: cell-based; conditions: Homo sapiens, COLO 205; 72 h incubation; this work
# Excerpt: as §1, §2
# [7] = tested on: A431-B1; parameters: method as in earlier work; conditions: monoculture, ref SI3, cited from earlier work
# [8] = tested on: MES-SA; conditions: monoculture, PrestoBlue; ref SI2; cited from earlier work
# [9] = tested on: MES-SA/Dx5; conditions: monoculture, ref SI2, cited from earlier work
# [10] = tested on: A431; parameters: method as in earlier work; conditions: monoculture, 72 h, PrestoBlue; ref SI3; cited from earlier work
# [11] = pH 7.4; cited from earlier work
# [12] = biological target: human serum albumin (HSA), Trp214 / site I (Homo sapiens, UniProt P02768); assay: HSA Trp214 fluorescence quenching; conditions: 1 μM HSA; λEX = 295 nm (Trp-214); pH 7.4 (PBS’); […]; 24 h
# Chain of human serum albumin (HSA), Trp214 / site I (P02768 25-609): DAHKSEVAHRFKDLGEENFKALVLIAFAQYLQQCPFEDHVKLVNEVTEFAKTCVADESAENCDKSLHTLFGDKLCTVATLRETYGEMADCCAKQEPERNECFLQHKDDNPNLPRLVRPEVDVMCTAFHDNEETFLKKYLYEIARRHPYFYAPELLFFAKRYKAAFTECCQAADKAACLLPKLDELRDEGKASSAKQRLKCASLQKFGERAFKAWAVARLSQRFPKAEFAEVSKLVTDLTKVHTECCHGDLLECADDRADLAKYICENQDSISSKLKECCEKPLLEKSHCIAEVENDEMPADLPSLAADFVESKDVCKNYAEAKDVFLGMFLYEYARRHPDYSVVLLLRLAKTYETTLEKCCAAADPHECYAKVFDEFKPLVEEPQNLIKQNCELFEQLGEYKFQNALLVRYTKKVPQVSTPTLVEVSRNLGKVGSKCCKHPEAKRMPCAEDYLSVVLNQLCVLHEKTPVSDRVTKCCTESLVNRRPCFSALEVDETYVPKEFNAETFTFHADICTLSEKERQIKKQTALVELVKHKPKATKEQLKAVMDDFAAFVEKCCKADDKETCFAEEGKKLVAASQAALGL
# Description: (§9) Next, spectrofluorometric measurements were also performed to gain insight into the binding interactions that may occur in the hydrophobic binding sites of HSA. Tryptophan (Trp214) quenching experiments were conducted for the complexes (1–4) (for complex (3) see Figure S31) and their ligands). […] To monitor the binding at site II, site marker displacement experiments were performed using dansylglycine (DG).
# (§10) Fluorescence measurements were carried out on a Fluoromax (Horiba Jobin Yvon, Longjumeau, France) spectrofluorometer using a 1 cm × 1 cm quartz cuvette. […] Excitation wavelengths were 295 nm for Trp-214 quenching and 340 nm for the DG displacement studies. The calculated conditional stability constants for HSA–complex species were obtained using the computer program HypSpec.[64] Calculations always were based on data obtained from at least two independent measurements.
# [13] = pKa of in situ prepared complexes by pH-potentiometry; type: physicochemical; conditions: I = 0.20 M KNO3
# Excerpt: (§5) The results, shown in Table 2, indicate good agreement between the data obtained by the different methods. It should be noted that these processes show overlap in all cases, and therefore, the assignment of the pKa values to the given moieties cannot be made reliably. However, by comparing the spectral changes with those observed for HQ and other simple derivatives,[25] it can be concluded that the lower pKa likely belongs to the deprotonation of the aqua coligand.
# The pH-potentiometric measurements were carried out at 25.0 ± 0.1 °C in water in the pH range between 2.0 and 11.5 and at a constant ionic strength of 0.20 M KNO3. The titrations were performed in a carbonate-free KOH solution (0.20 M). The exact concentrations of the HNO3 and KOH solutions were determined by pH-potentiometric titrations. An Orion 710A pH-meter equipped with a Metrohm combined electrode (type 6.0234.100) and a Metrohm 665 Dosimat buret were used for this purpose. […] The average water ionization constant, pKw, was determined as 13.76 ± 0.01, which is in good agreement with the literature data.[67] The initial volume of the samples was 10.0 mL. […] Samples were degassed by bubbling purified argon through them for about 10 min prior to the measurements, and the inert gas was also passed over the solutions during the titrations. The computer program Hyperquad2013[64] was utilized to establish the stoichiometry of the species and to calculate the equilibrium constants.
# [14] = tested on: Escherichia coli (ATCC 25922); assay: Antibacterial MIC, E. coli; type: cell-based; conditions: Mueller Hinton Broth, 37 °C, 18 h
# Description: (§6) Escherichia coli (ATCC 25922) was used as Gram-negative strain and Staphylococcus aureus (ATCC 25923, methicillin-resistant (MRSA) ATCC 43300) strains were applied as Gram-positive bacterial cultures in the experiments. MIC values of the compounds were determined in 96-well plates based on the Clinical and Laboratory Standard Institute guidelines (CLSI guidelines).[76] The stock solutions of the compounds (same as those used for cytotoxicity experiments) were diluted in 100 μL of Mueller Hinton Broth. Then, 10^–4 dilution of an overnight bacterial culture in 100 μL of medium was added to each well, with the exception of the medium control wells.
# [15] = tested on: methicillin-resistant S. aureus (MRSA) ATCC 43300; assay: Antibacterial MIC, MRSA; type: cell-based, Staphylococcus aureus; conditions: Mueller Hinton Broth, 37 °C, 18 h
# Description: as §6
# [16] = biological target: human serum albumin (HSA), site II (Homo sapiens, UniProt P02768); assay: HSA dansylglycine (DG) site marker displacement; conditions: cHSA = cDG = 1 μM; λEX = 335 nm (DG); pH 7.4 (PBS’); […]; 24 h
# Chain of human serum albumin (HSA), site II (P02768 25-609): as above
# Description: as §9, §10
# [17] = pKa of in situ prepared complexes by 1H NMR titration; type: physicochemical; conditions: 1:1 system, I = 0.20 M KNO3
# Excerpt: as §5
# Bruker Avance III HD Ascend 500 Plus instrument (Billerica, MA, USA) was used for NMR studies. ^1H NMR spectroscopic measurements were carried out with a WATERGATE water suppression pulse scheme in the presence of 10% (v/v) D2O in most cases. DSS internal standard was added to samples to obtain reference peaks. ^1H NMR titrations were carried out in the presence of 0.20 M KNO3. The computer program HypSpec[64] was used to obtain equilibrium constants.
# [18] = n-octanol/water distribution coefficient (shake-flask); type: physicochemical; conditions: pH 7.4, […]
# Description: The exchange of the coligand (H2O/Cl^–) changes the overall charge of the complex, thus affecting lipophilicity. […] The traditional shake-flask method was used to obtain distribution coefficients of the ligands as well as of the complexes in n-octanol/buffered aqueous solution (20 mM phosphate, pH = 7.4) at different chloride ion concentrations (4, 24, and 100 mM) using UV–vis spectrophotometry (Agilent Cary 8454 diode array spectrophotometer, Santa Clara, CA, USA) for the analysis. The compounds were dissolved in buffered aqueous solutions previously saturated with n-octanol. Then the aqueous and n-octanol phases were gently mixed in different volume ratios (using 1:60 for the ligands, 1:1 for the RhCp* and 1:2 for the RuCym complexes ratios of n-octanol to buffered aqueous solution volume) for 4 h, followed by phase separation. Then the UV–vis spectrum of the aqueous or n-octanol phase was recorded and compared to the reference spectrum. Stock solutions were made in the aqueous phase, and distribution coefficients (DpH) were calculated by the following equation: [drawing 3]
# [19] = H2O/Cl– coligand exchange by UV–vis titration with chloride ions; type: physicochemical; conditions: RuCym complexes titrated at pH 6.0
# Description: When the isolated complexes (1–4) are dissolved in water, their chlorido coligand can be replaced by water, or vice versa in the aqua complexes [M(arene)(HL)(H2O)]^2+, the H2O → Cl^– exchange process can take place in the presence of chloride ions. The chloride ion affinity of the complexes was also investigated by UV–vis spectrophotometry. RhCp* and RuCym complexes were titrated with chloride ions at pH 7.4 and 6.0, respectively. For this experiment, pH values were chosen at which the formation of the mixed hydroxido species is negligible. A representative spectrum series for complex (4) is shown in Figure S27, and the calculated conditional exchange constants (logK’ (H2O/Cl^–)) are given in Table 2 and in Figure S23. […] The complexes of the amino acid hybrids HQCl-D-Pro and HQCl-D-hPro have lower logK’ (H2O/Cl^–) constants most likely due to the repulsive effect of the nearby COO^– group.[26]
# [20] = pKa of in situ prepared complexes by UV–vis titration; type: physicochemical; conditions: 1:1 system, absence of chloride, I = 0.20 M KNO3
# Excerpt: The UV–vis spectra of the complexes prepared in situ were then followed at different pH values in the absence of chloride ions. No spectral changes were observed between pH = 2–6.3 (RuCym) or 7.5 (RhCp*), indicating high solution stability in both cases; however, the changes were significant in the basic pH range (Figure S22). In the case of RuCym complexes, two overlapping processes associated with the deprotonation of the coordinated water molecule and the noncoordinated Npyr/pipH^+ moiety were observed. […] The pKa values determined for these processes are shown in Table 2 and Figure S23 together with the values obtained for complexes formed with the amino acid hybrids HQCl-D-Pro and HQCl-D-hPro (Chart 2) for comparison.[26]
# An Agilent Cary 8454 diode array spectrophotometer was utilized to obtain UV–vis spectra in the wavelength range 190–1100 nm. The path length (l) was 1 or 2 cm in most cases (the actual l is always indicated in the legends of the figures). The concentrations of the ligands and complexes were between 36 and 100 μM. The ligands were titrated in the presence of 10 equiv of EDTA. Individual samples contained 0–37 μM HSA, 0–206 μM MIM, 0–759 μM AHA, or 0–733 μM FHA. Spectra were always background and baseline corrected. The computer program HypSpec[64] was used to obtain stability constants.
# [21] = tested on: Staphylococcus aureus (ATCC 25923); assay: Antibacterial MIC, S. aureus; type: cell-based; conditions: Mueller Hinton Broth, 37 °C, 18 h
# Description: as §6
# [22] = Homo sapiens, MES-SA/Dx5, 144 h
compound,measurement,setting,value
"COc1cccc2c1C(=O)c1c(O)c3c(c(O)c1C2=O)C[C@@](O)(C(=O)CO)C[C@@H]3O[C@H]1C[C@H](N)[C@H](O)[C@H](C)O1 [doxorubicin, reference compound]",IC50,"[1]; Homo sapiens, COLO 320, 72 h incubation",190 ± 20 nM
same,SR (Colo205 / Colo320),[1],0.3
same,IC50,[2]; [22],2620 nM
same,SR = IC50 (MES-SA)/IC50 (MES-SA/Dx5),[2]; + 0.4 μM tariquidar (TQ),1.3
same,SR = IC50 (MES-SA)/IC50 (MES-SA/Dx5),[2]; without TQ,0.01
same,IC50,[3],30 nM
same,SR Dx5 = IC50 (MES-SA)/IC50 (MES-SA/Dx5),[4],0.03
same,IC50,[4]; [22],1070 nM
same,IC50,"[5]; Homo sapiens, MES-SA",30 nM
same,IC50,[6],50 ± 10 nM
"Oc1c(CN2CCCCC2)ccc2cccnc12 [PHQ, 7-(1-piperidinylmethyl)quinolin-8-ol, reference compound]",IC50,"[7]; 72 h, PrestoBlue",2480 ± 700 nM
same,SR (A431 / A431-B1),[7],4.09
same,IC50,[8],3630 ± 580 nM
same,IC50,[2]; [22],490 nM
same,SR = IC50 (MES-SA)/IC50 (MES-SA/Dx5),[2]; + 0.4 μM tariquidar (TQ),1.8
same,SR = IC50 (MES-SA)/IC50 (MES-SA/Dx5),[2]; without TQ,7.8
same,IC50,[9]; PrestoBlue,620 ± 30 nM
same,SR (MES-SA / MES-SA/Dx5),[9]; + 1 µM TQ,0.92
same,SR (MES-SA / MES-SA/Dx5),[9],5.85
same,IC50,[10],10100 ± 2950 nM
same,IC50,"[5]; Homo sapiens, MES-SA",3800 nM
same,log D7.4,[11],+0.93
[RuCym(HQCl-Pip)Cl]Cl [(4)],logK’(quenching),[12],5.4 ± 0.2
same,pKa (H2O),[13],8.43 ± 0.08
same,pKa (Npyr/pipH+),[13],10.07 ± 0.07
same,MIC,[14],> 100 µM
same,SR = IC50 (MES-SA)/IC50 (MES-SA/Dx5),[2]; + 0.4 μM tariquidar (TQ),0.2
same,SR = IC50 (MES-SA)/IC50 (MES-SA/Dx5),[2]; without TQ,1.8
same,IC50,"[2]; double coculture with MES-SA, 144 h, without TQ",1920 nM
same,MIC,[15],> 100 µM
same,logK’(DG),[16],5.3 ± 0.1
same,pKa (H2O),[17],8.50 ± 0.02
same,pKa (Npyr/pipH+),[17],10.19 ± 0.02
same,logD7.4,[18]; c(Cl–) = 4 mM,+0.35 ± 0.02
same,logD7.4,[18]; c(Cl–) = 24 mM,+0.72 ± 0.02
same,logD7.4,[18]; c(Cl–) = 100 mM,+0.89 ± 0.02
same,logK’ (H2O/Cl–),[19],1.78 ± 0.02
same,IC50,"[5]; double coculture with MES-SA/Dx5, without TQ",3460 nM
same,pKa (H2O),[20],8.39 ± 0.10
same,pKa (Npyr/pipH+),[20],10.06 ± 0.05
same,MIC,[21],> 100 µM

# From publication PMC11653257, “Organometallic Half-Sandwich Complexes of 8-Hydroxyquinoline-Derived Mannich Bases with Enhanced Solubility: Targeting Multidrug Resistant Cancer” (Inorganic Chemistry, 2024)
